Measurements published in PMC11062899, “De novo development of small cyclic peptides that are orally bioavailable” (Nature Chemical Biology, 2023).
Where “and” joins values, the source holds several entries; their conditions need not be identical. Identical values can stand only once. Like-named read-outs stand apart in the source and are kept apart here.

What was measured:
[1] = biological target: human α-thrombin (Homo sapiens, UniProt P00734); assay: Protease inhibition, Ki for human α-thrombin (fluorogenic substrate Z-Gly-Gly-Arg-AMC); format: biochemical; settings: human alpha thrombin; for Slope normalized to DMSO (proteolytic substrate cleavage over time): replicates R1-R3
Outline: (§1)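 Inhibition was measured as AMC fluorescence from 50 μM substrate, monitored for 30 min at 25 °C, relative to a peptide-free control. Human and rat enzymes were present at 2 nM and 3 nM final, respectively, in 50 mM Tris-HCl pH 7.4, 150 mM NaCl, 10 mM MgCl2, 1 mM CaCl2. Ki derives from fitted IC50 via Cheng–Prusoff.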

[2] = biological target: T1, rat α-thrombin (Rattus norvegicus, UniProt P18292); assay: Protease inhibition, Ki for rat α-thrombin (fluorogenic substrate Z-Gly-Gly-Arg-AMC); format: biochemical; settings: rat alpha thrombin; for Slope normalized to DMSO (proteolytic substrate cleavage over time): replicates R1-R3
T1 construct: rat α-thrombin (Molecular Innovations) were used at final concentrations of 2 nM and 3 nM; purchased Molecular Innovations
Outline: as §1

[3] = biological target: T2, porcine pepsin (Sus scrofa, UniProt P00791); assay: Peptide stability in simulated gastric fluid (SGF); format: in vitro ADME
T2 construct: 0.32 g of porcine pepsin (Sigma-Aldrich, P7125) was dissolved under gentle agitation; purchased Sigma-Aldrich P7125
T2 sequence (P00791 60-385): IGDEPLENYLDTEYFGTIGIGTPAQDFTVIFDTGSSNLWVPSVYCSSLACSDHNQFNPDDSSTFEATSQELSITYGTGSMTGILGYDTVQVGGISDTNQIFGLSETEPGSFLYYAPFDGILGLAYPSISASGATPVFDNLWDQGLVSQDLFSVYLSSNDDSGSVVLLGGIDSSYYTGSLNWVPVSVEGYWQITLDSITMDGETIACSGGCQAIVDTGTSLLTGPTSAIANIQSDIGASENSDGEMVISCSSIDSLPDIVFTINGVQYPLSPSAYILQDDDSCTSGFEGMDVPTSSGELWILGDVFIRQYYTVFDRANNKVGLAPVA
Outline: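 Peptide from a 1 mM DMSO stock was added to fluid pre-warmed at 37 °C. SGF was pH 1.2 NaCl with porcine pepsin (0.32 g per 100 ml), and SIF was pH 6.8 potassium phosphate with porcine pancreatin (1 g per 100 ml). Supernatant peptide was quantified by LC–MS, with residual expressed as T1/T0.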

[4] = Passive artificial membrane permeability (PAMPA)
[5] = Metabolic stability in rat liver microsomes (RLMs); settings: for microsomal CLint / half-life: rat
Protocol: Metabolic stability was measured by incubating the peptides (10 μM) with RLMs. Peptides to test were dissolved in DMSO (4 mM), and 1 μl of the resulting solution was added to 365 μl of 0.1 M sodium phosphate buffer (pH 7.4). The solution was pre-warmed at 37 °C for 5 min before starting the reaction by addition of 24 μl of NADPH cofactor solution (22 mM) and 11 μl of RLMs (20 mg ml^−1 protein concentration; Thermo Fisher Scientific, RTMCPL). […] Samples were vortexed, sonicated for 5 min and centrifuged at 16,000g for 10 min. Supernatant was analyzed by LC–MS to quantify the disappearance of the compound and formation of degradation products.

O=C1C[C@H]2CCCN2C(=O)[C@H](Cc2ccccc2)NC(=O)[C@@H](NC(=O)c2ccc(Cl)s2)CCSC/C=C/CSCCN1 [compound 34]
Ki ([1]; average of R1-R3, read-out: Ki Average, human alpha thrombin inhibition): 21 nM
Slope normalized to DMSO (proteolytic substrate cleavage over time) ([1]; peptide 1.02E-03 uM): 77.8 and 82.6 and 87.7
Slope normalized to DMSO (proteolytic substrate cleavage over time) ([1]; peptide 1.27E-04 uM): 85.2 and 86.3 and 97.5
Slope normalized to DMSO (proteolytic substrate cleavage over time) ([1]; peptide 1.30E-01 uM): 23.7 and 29.7 and 31.1
Slope normalized to DMSO (proteolytic substrate cleavage over time) ([1]; peptide 1.59E-05 uM): 99.4 and 93.2 and 99.6
Slope normalized to DMSO (proteolytic substrate cleavage over time) ([1]; peptide 1.63E-02 uM): 62.9 (2×) and 53.3
Slope normalized to DMSO (proteolytic substrate cleavage over time) ([1]; peptide 2.03E-03 uM): 91.1 and 82.2 and 86.6
Slope normalized to DMSO (proteolytic substrate cleavage over time) ([1]; peptide 2.54E-04 uM): 95.6 and 96.7 and 91.7
Slope normalized to DMSO (proteolytic substrate cleavage over time) ([1]; peptide 2.60E-01 uM): 14.6 and 25.5 and 20.4
Slope normalized to DMSO (proteolytic substrate cleavage over time) ([1]; peptide 3.18E-05 uM): 103.9 and 99.1 and 101.2
Slope normalized to DMSO (proteolytic substrate cleavage over time) ([1]; peptide 3.26E-02 uM): 46.1 and 40.2 and 49.8
Slope normalized to DMSO (proteolytic substrate cleavage over time) ([1]; peptide 4.07E-03 uM): 82.6 and 77.6 and 83.2
Slope normalized to DMSO (proteolytic substrate cleavage over time) ([1]; peptide 5.09E-04 uM): 88.5 and 86.7 and 91.9
Slope normalized to DMSO (proteolytic substrate cleavage over time) ([1]; peptide 5.21E-01 uM): 17.1 and 15.0
Slope normalized to DMSO (proteolytic substrate cleavage over time) ([1]; peptide 6.36E-05 uM): 96.5 and 103.5 and 97.9
Slope normalized to DMSO (proteolytic substrate cleavage over time) ([1]; peptide 6.51E-02 uM): 35.9 and 37.8 and 41.0
Slope normalized to DMSO (proteolytic substrate cleavage over time) ([1]; peptide 7.95E-06 uM): 100.7 and 95.5 and 98.4
Slope normalized to DMSO (proteolytic substrate cleavage over time) ([1]; peptide 8.14E-03 uM): 73.2 and 59.3 and 66.6
IC50 ([1]; single replicates R1-R3, read-out: IC50, human alpha thrombin inhibition): 30.2 nM and 20 nM and 31.5 nM
Ki ([1]; single replicates R1-R3, read-out: Ki, human alpha thrombin inhibition): 23.3 nM (2×) and 15.4 nM (2×) and 24.2 nM (2×)
Ki ([2]; average of R1-R3, read-out: Ki Average, rat alpha thrombin inhibition): 6.1 nM
Slope normalized to DMSO (proteolytic substrate cleavage over time) ([2]; peptide 1.02E-03 uM): 78.7 and 76.8 and 72.0
Slope normalized to DMSO (proteolytic substrate cleavage over time) ([2]; peptide 1.04E+00 uM): 7.3 and 7.7 and 6.8
Slope normalized to DMSO (proteolytic substrate cleavage over time) ([2]; peptide 1.27E-04 uM): 95.1 and 95.2 and 91.8
Slope normalized to DMSO (proteolytic substrate cleavage over time) ([2]; peptide 1.30E-01 uM): 20.8 and 21.8 and 17.8
Slope normalized to DMSO (proteolytic substrate cleavage over time) ([2]; peptide 1.59E-05 uM): 100.8 and 100.5 and 95.6
Slope normalized to DMSO (proteolytic substrate cleavage over time) ([2]; peptide 1.63E-02 uM): 48.6 and 45.6 and 41.9
Slope normalized to DMSO (proteolytic substrate cleavage over time) ([2]; peptide 1.67E+01 uM): 5.6 and 6.1 and 3.4
Slope normalized to DMSO (proteolytic substrate cleavage over time) ([2]; peptide 2.03E-03 uM): 77.5 and 75.6 and 71.7
Slope normalized to DMSO (proteolytic substrate cleavage over time) ([2]; peptide 2.08E+00 uM): 5.5 and 7.4 and 5.0
Slope normalized to DMSO (proteolytic substrate cleavage over time) ([2]; peptide 2.54E-04 uM): 90.6 and 89.3 and 85.2
Slope normalized to DMSO (proteolytic substrate cleavage over time) ([2]; peptide 2.60E-01 uM): 14.5 and 13.9 and 10.9
Slope normalized to DMSO (proteolytic substrate cleavage over time) ([2]; peptide 3.18E-05 uM): 98.5 and 99.4 and 94.0
Slope normalized to DMSO (proteolytic substrate cleavage over time) ([2]; peptide 3.26E-02 uM): 34.9 (2×) and 30.9
Slope normalized to DMSO (proteolytic substrate cleavage over time) ([2]; peptide 3.33E+01 uM): 5.6 and 5.2 and 4.6
Slope normalized to DMSO (proteolytic substrate cleavage over time) ([2]; peptide 4.07E-03 uM): 74.5 and 73.2 and 65.7
Slope normalized to DMSO (proteolytic substrate cleavage over time) ([2]; peptide 4.17E+00 uM): 6.0 and 6.5 and 4.6
Slope normalized to DMSO (proteolytic substrate cleavage over time) ([2]; peptide 5.09E-04 uM): 86.5 and 86.6 and 79.6
Slope normalized to DMSO (proteolytic substrate cleavage over time) ([2]; peptide 5.21E-01 uM): 8.9 and 10.7 and 8.6
Slope normalized to DMSO (proteolytic substrate cleavage over time) ([2]; peptide 6.36E-05 uM): 95.0 and 93.8 and 92.2
Slope normalized to DMSO (proteolytic substrate cleavage over time) ([2]; peptide 6.51E-02 uM): 29.2 and 28.9 and 23.7
Slope normalized to DMSO (proteolytic substrate cleavage over time) ([2]; peptide 6.67E+01 uM): 6.0 and 6.3 and 4.0
Slope normalized to DMSO (proteolytic substrate cleavage over time) ([2]; peptide 7.95E-06 uM): 103.6 and 102.5 and 98.1
Slope normalized to DMSO (proteolytic substrate cleavage over time) ([2]; peptide 8.14E-03 uM): 62.2 and 57.8 and 53.3
Slope normalized to DMSO (proteolytic substrate cleavage over time) ([2]; peptide 8.33E+00 uM): 4.9 and 6.7 and 5.0
IC50 ([2]; single replicates R1-R3, read-out: IC50, rat alpha thrombin inhibition): 13 nM and 10.8 nM and 9.19 nM
Ki ([2]; single replicates R1-R3, read-out: Ki, rat alpha thrombin inhibition): 7.18 nM and 6.01 nM (2×) and 5.09 nM (2×) and 7.19 nM
SGF stability, Residual peptide Average ([3]; after 8 h vs 0 h (TIC), average of R1-R3): 99.21
SGF stability, Residual peptide ([3]; after 8 h vs 0 h (TIC), single replicates R1-R3): 107.50 and 92.24 and 97.90
remaining at 8 h ([3]; simulated gi fluid, 8 h, 37 °C, pH 1.2, read-out: Proteolytic stability: SGF (8 h) % remaining): 99 ± 8%
PAMPA permeability: % permeability ([4]; 50 μM, 12–18 h, acceptor concentration relative to equilibrium): 37 ± 1%
Papp at 50 μM ([4]; PAMPA, pH 7.4): 4.57 ×10⁻⁶ cm/s
Permeability% Average ([4]; top well sample vs theoretical equilibrium sample (TIC), average of R1-R3): 37.0%
Permeability% ([4]; top well sample vs theoretical equilibrium sample (TIC), single replicates R1-R3): 36.96% and 38.34% and 35.81%
TIC value of compound, 0 min, R1 ([5]; rat liver microsomes, 0 min, replicate R1): 12429096
TIC value of compound, 0 min, R3 ([5]; rat liver microsomes, 0 min, replicate R3): 11063826
TIC value of compound, 5 min, R1 ([5]; rat liver microsomes, 5 min, replicate R1): 11351623
TIC value of compound, 5 min, R3 ([5]; rat liver microsomes, 5 min, replicate R3): 10806046
TIC value of compound, 15 min, R1 ([5]; rat liver microsomes, 15 min, replicate R1): 7245055
TIC value of compound, 15 min, R3 ([5]; rat liver microsomes, 15 min, replicate R3): 6630237
TIC value of compound, 30 min, R1 ([5]; rat liver microsomes, 30 min, replicate R1): 4320756
TIC value of compound, 30 min, R3 ([5]; rat liver microsomes, 30 min, replicate R3): 3830533
TIC value of compound, 60 min, R1 ([5]; rat liver microsomes, 60 min, replicate R1): 1228797
TIC value of compound, 60 min, R3 ([5]; rat liver microsomes, 60 min, replicate R3): 1213522
microsomal CLint ([5]; CL (ul/min/mg protein), R1, RLM CL, replicate R1, unrounded): 69.7 µL/min/mg
microsomal CLint ([5]; CL (ul/min/mg protein), R2, RLM CL, replicate R2, unrounded): 85.6 µL/min/mg
microsomal CLint ([5]; CL (ul/min/mg protein), R3, RLM CL, replicate R3, unrounded): 66.4 µL/min/mg
half-life ([5]; Half Life (min), R1, RLM metabolic stability, replicate R1): 19.9 min
half-life ([5]; Half Life (min), R2, RLM metabolic stability, replicate R2): 16.2 min
half-life ([5]; Half Life (min), R3, RLM metabolic stability, replicate R3): 20.9 min
half-life ([5]; microsomes, Metabolic stability: Half life T1/2 (min), RLMs, mean and SD, three measurements): 19 ± 2 min
microsomal CLint ([5]; microsomes, Metabolic stability: RLM CL (ul/min/mg), RLMs, mean and SD, three measurements): 74 ± 8 µL/min/mg
microsomal CLint ([5]; microsomes, RLM CL, Average, average of R1-R3): 73.9 µL/min/mg
microsomal CLint ([5]; microsomes, RLM CL, R1, RLM CL, replicate R1, summary block): 69.7 µL/min/mg
microsomal CLint ([5]; microsomes, RLM CL, R2, RLM CL, replicate R2, summary block): 85.6 µL/min/mg
microsomal CLint ([5]; microsomes, RLM CL, R3, RLM CL, replicate R3, summary block): 66.4 µL/min/mg
